# Reference: article PMC7501296, “Rapid and direct control of target protein levels with VHL-recruiting dTAG molecules” (Nature Communications, 2020)
# “And” between values parts separate entries of the source, which are not always exact repeats. Equal values may be shown once.
# Assays:
# Type in all cases: cell-based
# [1] = molecular target: T1, FKBP12^WT-Nluc (Homo sapiens, UniProt P62942); test: FKBP12WT-Nluc dual luciferase assay (293FT); details: 293FT, 24 h
# T1 construct: expressed in transfected cells; host or cells: 293FT
# In short: (§1)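 293FT cells expressing FKBP12^WT-Nluc or FKBP12^F36V-Nluc with Fluc were treated with compound for 24 h at 37 °C. Fluc, then Nluc, luminescence was read with Dual-Glo reagents. Values are DMSO-normalised Nluc/Fluc ratios.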
# [2] = system: PATU-8902 FKBP12^F36V-KRAS^G12V; KRAS^-/- clone; test: Antiproliferation, PATU-8902 FKBP12F36V-KRASG12V; KRAS-/- clone, 3D-spheroid (CellTiter-Glo); details: 120 h; for DMSO-normalized antiproliferation: FKBP12F36V-KRASG12V, KRAS-/-, 3D-spheroid
# In short: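 Viability of cells grown as ultra-low adherent 3D-spheroids was determined with CellTiter-Glo (Promega). Luminescence readings were taken on an Envision 2104 plate reader (PerkinElmer) and a Fluostar Omega Reader (BMG Labtech), and the resulting data were processed in GraphPad PRISM v8 to assess effects on cell proliferation.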
# [3] = system: PATU-8902 FKBP12^F36V-KRAS^G12V; KRAS^-/- clone; test: Antiproliferation, PATU-8902 FKBP12F36V-KRASG12V; KRAS-/- clone, 2D-monolayer (CellTiter-Glo)
# [4] = system: PATU-8902 LACZ-FKBP12^F36V clone; test: Antiproliferation, PATU-8902 LACZ-FKBP12F36V clone, 2D-monolayer (CellTiter-Glo)
# In short: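 Viability of cells grown as 2D-adherent monolayers was determined with the CellTiter-Glo luminescent reagent (Promega). Luminescence signals were read on either an Envision 2104 plate reader (PerkinElmer) or a Fluostar Omega Reader (BMG Labtech), and the resulting data were processed and analyzed in GraphPad PRISM v8 software.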
# [5] = molecular target: T2, FKBP12^F36V-Nluc (Homo sapiens, UniProt P62942, F37V); test: FKBP12F36V-Nluc dual luciferase assay (293FT); details: 293FT, 24 h
# T2 construct: expressed in transfected cells; host or cells: 293FT
# In short: as §1
# [6] = log10[compound] (M) -5.69897, replicate values
# [7] = log10[compound] (M) -6.19897, replicate values
# [8] = log10[compound] (M) -6.69897, replicate values
# [9] = log10[compound] (M) -7.19897, replicate values
# [10] = log10[compound] (M) -7.69897, replicate values
# [11] = log10[compound] (M) -8.19897, replicate values
# [12] = log10[compound] (M) -8.69897, replicate values
# [13] = log10[compound] (M) -9.19897, replicate values
# [14] = log10[compound] (M) -9.69897, replicate values
# [15] = log10[compound] (M) -10.199, replicate values
# T1 sequence (P62942 2-108 limits assumed): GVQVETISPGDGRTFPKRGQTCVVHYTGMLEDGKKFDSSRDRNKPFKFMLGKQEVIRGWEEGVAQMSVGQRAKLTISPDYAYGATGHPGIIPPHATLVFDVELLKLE
# T2 sequence (P62942 2-108 F37V limits assumed): as the sequence (P62942 2-108 limits assumed) above, with F36V counted along it
structure (smiles),measurement,setting,value
CC[C@H](C(=O)N1CCCC[C@H]1C(=O)O[C@H](CCc1ccc(OC)c(OC)c1)c1ccccc1OCC(=O)NCCCCCCC(=O)N[C@H](C(=O)N1C[C@H](O)C[C@H]1C(=O)N[C@@H](C)c1ccc(-c2scnc2C)cc1)C(C)(C)C)c1cc(OC)c(OC)c(OC)c1 [dTAG^V-1],Effect on FKBP12WT-Nluc (in words),[1],no effects
same,Cell proliferation upon FKBP12F36V-KRASG12V degradation,[2]; 2D-monolayer and 3D-spheroid cultures,diminished cell proliferation
same,DMSO-normalized antiproliferation,"[2]; log10[compound] (M) -5.69897, single replicates",14.2222 and 15.5085 and 18.1313 and 19.3564
same,DMSO-normalized antiproliferation,"[2]; log10[compound] (M) -6.19897, single replicates",19.4455 and 15.9874 and 15.9651 and 15.7814
same,DMSO-normalized antiproliferation,"[2]; log10[compound] (M) -6.69897, single replicates",16.8171 and 16.5888 and 12.056 and 15.8705
same,DMSO-normalized antiproliferation,"[2]; log10[compound] (M) -7.19897, single replicates",11.0759 and 11.8444 and 17.6524 and 14.6677
same,DMSO-normalized antiproliferation,"[2]; log10[compound] (M) -7.69897, single replicates",20.7875 and 17.3072 and 22.4693 and 16.2436
same,DMSO-normalized antiproliferation,[3]; log10[compound] (M) -4.69897,20.6105 and 17.3638 and 20.4315 and 22.7846
same,DMSO-normalized antiproliferation,[3]; log10[compound] (M) -5.19897,21.3993 and 17.4773 and 18.2 and 18.6602
same,DMSO-normalized antiproliferation,[3]; log10[compound] (M) -5.69897,16.8112 and 15.7934 and 16.8516 and 16.7935
same,DMSO-normalized antiproliferation,[3]; [6],4.6597 and 4.418 and 4.149 and 3.87
same,DMSO-normalized antiproliferation,[3]; log10[compound] (M) -6.19897,20.0987 and 17.9241 and 20.6309 and 19.478
same,DMSO-normalized antiproliferation,[3]; [7],5.446 and 5.94 and 6.406 and 4.294
same,DMSO-normalized antiproliferation,[3]; log10[compound] (M) -6.69897,25.9066 and 20.9075 and 21.5913 and 21.1711
same,DMSO-normalized antiproliferation,[3]; [8],8.244 and 7.637 and 8.006 and 6.772
same,DMSO-normalized antiproliferation,[3]; log10[compound] (M) -7.19897,27.2696 and 25.1897 and 32.757 and 26.1725
same,DMSO-normalized antiproliferation,[3]; [9],9.134 and 8.1 and 7.928 and 7.914
same,DMSO-normalized antiproliferation,[3]; log10[compound] (M) -7.69897,32.5281 and 28.8466 and 33.2484 and 29.8055
same,DMSO-normalized antiproliferation,[3]; [10],23.295 and 23.6499 and 25.1438 and 20.7638
same,DMSO-normalized antiproliferation,[3]; log10[compound] (M) -8.19897,71.5602 and 70.7086 and 72.3533 and 72.4741
same,DMSO-normalized antiproliferation,[3]; [11],58.7893 and 63.6738 and 62.8905 and 55.3819
same,DMSO-normalized antiproliferation,[3]; log10[compound] (M) -8.69897,90.0484 and 84.5598 and 93.7922 and 91.6223
same,DMSO-normalized antiproliferation,[3]; [12],97.0333 and 109.013 and 119.265 and 75.6713
same,DMSO-normalized antiproliferation,[3]; log10[compound] (M) -9.19897,99.7014 and 102.892 and 91.8028 and 106.019
same,DMSO-normalized antiproliferation,[3]; [13],104.958 and 110.142 and 126.275 and 110.446
same,DMSO-normalized antiproliferation,[3]; [14],77.7582 and 88.137 and 113.958 and 92.6055
same,DMSO-normalized antiproliferation,[3]; [15],96.7023 and 108.197 and 96.9121 and 90.9372
same,DMSO-normalized antiproliferation,[4]; [6],35.4292 and 29.4521 and 35.0517 and 31.6104
same,DMSO-normalized antiproliferation,[4]; [7],87.2455 and 81.8203 and 77.0995 and 64.2664
same,DMSO-normalized antiproliferation,[4]; log10[compound] (M) -6.69897,102.668 and 99.5089 and 89.7578 and 106.231
same,DMSO-normalized antiproliferation,[4]; [8],124.825 and 81.8259 and 133.331 and 119.877
same,DMSO-normalized antiproliferation,[4]; log10[compound] (M) -7.19897,90.1193 and 111.795 and 91.2446 and 98.3924
same,DMSO-normalized antiproliferation,[4]; [9],118.009 and 93.8067 and 130.572 and 123.376
same,DMSO-normalized antiproliferation,[4]; log10[compound] (M) -7.69897,112.909 and 117.897 and 108.192 and 99.266
same,DMSO-normalized antiproliferation,[4]; [10],133.195 and 132.373 and 134.672 and 120.383
same,DMSO-normalized antiproliferation,[4]; log10[compound] (M) -8.19897,101.415 and 100.309 and 97.138 and 102.461
same,DMSO-normalized antiproliferation,[4]; [11],136.88 and 106.56 and 99.7166 and 163.283
same,DMSO-normalized antiproliferation,[4]; log10[compound] (M) -8.69897,103.413 and 90.0724 and 92.9073 and 97.9489
same,DMSO-normalized antiproliferation,[4]; [12],148.548 and 115.202 and 143.359 and 119.836
same,DMSO-normalized antiproliferation,[4]; [13],116.491 and 96.4785 and 115.962 and 80.4138
same,DMSO-normalized antiproliferation,[4]; [14],139.57 and 103.845 and 96.4961 and 122.632
same,DMSO-normalized antiproliferation,[4]; [15],133.817 and 113.621 and 96.1958 and 88.4566
same,Degradation of FKBP12F36V-Nluc (in words),[5],potent degradation
